Assay [1] deals with renal cell proliferation in female FVB wt mice. Nature of the assay: EdU incorporation into whole kidney of cisplatin-treated mice (flow cytometry). The class given is in vivo, mouse. The following applies: kidney single cell suspension, 72 h; cisplatin 15 mg/kg IP; PD0332991 100 mg/kg per day in chow or no drug. The method, then: FIG. 6: CDK4/6 inhibition blocks EdU incorporation into whole kidney in mice treated with cisplatin. […] EdU ([…]) was given IP every 24 hours prior to sacrifice. Kidneys were collected and single cell isolates were prepared and stained for EdU incorporation. Proliferation was assessed by flow cytometry. Data represents % of EdU staining in untreated, cisplatin-treated and cisplatin/PD0332991 treated cells.
[…] Proliferation was assessed by using BrdU (1 mg IP injection) every 6 hours for 24 hours prior to sacrifice or […] (0.1 mg IP) every 24 hours for 3 days prior to sacrifice.
Kidneys were harvested from mice and single cells were isolated using a gentleMACS™ tissue dissociator (Miltinyi Biotec, Bergisch Gladbach, Germany). Briefly, kidneys were cut into small pieces and placed in 10 ml collagenase (1 mg/ml) in a gentleMACS™ C tube (Miltinyi Biotec, Bergisch Gladbach, Germany). Tissue was dissociated following the manufacturer's recommendations (Miltinyi Biotec, Bergisch Gladbach, Germany). Cells were then incubated for 5 minutes in ACK buffer to lyse red blood cells, filtered and pelleted. Cells were resuspended in 4% paraformaldehyde and stored overnight at 4° C. For quantification of EdU incorporation, the cells were fixed, permeabilized, and stained with an APC EdU Flow Kit according to the manufacturer's instruction (Invitrogen Corporation, Carlsbad, Calif., United States of America). Flow cytometric analysis was performed using a CyAn ADP (Dako, Glostrup, Denmark). For each sample, a minimum of 500,000 cells was analyzed and the data were analyzed using FlowJo software (Tree Star, Inc., Ashland, Oreg., United States of America).
The kidney is relatively quiescent until challenged by a renal insult. Therefore, to determine whether renal cell proliferation was dependent on CDK4/6 activity in vivo, renal cell proliferation was stimulated by treating female FVB wt mice with cisplatin, a known nephrotoxic chemotherapeutic agent. At time 0 hr, mice were started on chow delivering PD0332991 100 mg/kg per day or standard chow with no drug. […]
(In general: A flow cytometer gives signals particle by particle.)

The test system of assay [2] is human peripheral blood T cells (memory and naive). Nature of the assay: Human peripheral blood T cell proliferation after PMA and ionomycin stimulation (BrdU, Ki-67 FACS). The class given is cell-based. As for the experimental part:
FIG. 13: CDK4/6 inhibitors suppress T cell proliferation upon stimulation through TCR pathway in both memory and naïve compartments. Human peripheral blood T cells were purified using Automacs by CD3 positive selection before being treated with CDK4/6 inhibitors and stimulated with PMA and Inomycin for 48 hrs. The proliferation of memory […] T cells after stimulation by PMA and Inomycin was measured by FACS staining of BrdU+ or Ki-67+ cells. The percentages of inhibition are shown, which indicates more inhibition of memory compartment than naïve compartment.
FIG. 14: CDK4/6 inhibitors suppress T cell proliferation upon stimulation through TCR pathway. […] Proliferation determined by BrdU or Ki67 incorporation. […]
FIG. 15: Changes of CD4 T cell composition after CDK4/6 inhibition. […] The memory and terminal differentiated T cell fractions as assessed by BrdU incorporation are reduced after CDK4/6 inhibition. […]
FIG. 16: Changes of CD4 T cell composition after CDK4/6 inhibition. […] The memory and terminal differentiated T cell fractions as assessed by Ki67 staining are reduced after CDK4/6 inhibition. […]
Similar results were seen using human lymphocytes. […] In FIG. 15, the effects of CDK4/6 inhibition on specific Tcell fractions is assessed, with and without TCR, showing CDK4/6 inhibition has a greater effect on proliferation of memory cells relative to naïve cells. […]

Assay [3] relates to murine memory and naive T cells. The experiment in a line: Homeostatic T cell proliferation in mice (BrdU incorporation, Ki67). The assay is classed as in vivo, mouse. The following applies: murine cells, acute inhibition. The method, then:
FIG. 11A: Acute inhibition of CDK4/6 selectively suppresses memory T cell homeostatic proliferation in mice. Mice were treated with PD0332991 (150 mg/kg by oral gavage). Proliferation of T-cells were assessed using BrdU and flow cytometry.
Animals were treated with CDK4/6 inhibitor (PD0332991, open bars) or vehicle (shaded bars) for 24 hours and euthanized. Splenocytes were isolated and stained for B and T cell markers. After gating on appropriate populations, Ki67 staining was performed as an indicator of proliferation and S-phase. Error bars show +/−SEM.
Acute, pharmacologic inhibition of CDK4/6 suppresses lymphocyte proliferation with the most pronounced effect on memory T cell homeostatic proliferation and germinal center formation in mice. To determine whether inhibiting CDK4/6 affects memory cell generation and maintenance, mice were treated with selective CDK4/6 inhibitors, PD 0332991 or an unrelated selective CDK4/6 inhibitor, 2BrIC. 2BrIC was synthesized by OTAVA Chemicals (Kiev, Ukraine) and can be prepared according to methods described in Zhu et al., J. Med. Chem. 46, 2027-2030 (2003).
(Dividing cells build labelled thymidine or BrdU into new DNA.)

Assay [4] deals with purified human peripheral B cells (CD19+). Nature of the assay: Human B cell proliferation after anti-IgM stimulation (BrdU incorporation). The assay is classed as cell-based. The method, then: FIG. 20: CDK4/6 inhibitors suppress B cell proliferation after stimulation through BCR. B cells were purified by Automacs selection of CD19+ cells. The BrdU incorporation of purified human peripheral B cells was determined after anti-IgM stimulation with or without CDK4/6 inhibitor treatment. The fraction of proliferating B cells reduced ˜10 fold after L4D inhibition. L4D=2BrIC
Similar results were seen using human lymphocytes. […] Human lymphocytes are sorted to T(CD3+) and B(CD19+) cells and treated in vitro with CDK4/6 inhibitor prior to stimulation with PMA and Inomycin (P+I)+OKT3 (Tcells) or IgM (Bcells), with proliferation assessed by BrdU uptake and Ki67y expression, and activation assessed by CD25 expression. […] In FIG. 15, the effects of CDK4/6 inhibition on specific Tcell fractions is assessed, with and without TCR, showing CDK4/6 inhibition has a greater effect on proliferation of memory cells relative to naïve cells. […] These alterations in proliferation are associated with decreased T cell activation as measured by CD25 expression.
Cohorts of wild type mice were treated with vehicle or a CDK4/6 inhibitor as in FIG. 11. […] Unstimulated mice were treated for 24 hours with PD0332991 and homeostatic B cell proliferation measured by Ki67 staining after appropriate sorting. […]

The structures appear in SMILES notation.

For `N.N.[Cl][Pt][Cl]` [cisplatin], in assay [1], the “cells labeled with EdU” value is “approximately 17%”.
On to `O=C1NC(=O)c2c1c1c3ccccc3[nH]c1c1[nH]c3cc(Br)ccc3c21` [2BrIC, 2-bromo-12,13-dihydro-5H-indolo[2,3-a]pyrrolo[3,4]-carbazole-5,6-dione], for which the “proliferation of memory vs naive T cells (BrdU incorporation, Ki67 expression)” value in assay [2] is given as “more significant decrease in homeostatic proliferation of memory T cells than naive T cells”. In assay [3], the “homeostatic proliferation of memory vs naive T cells (BrdU incorporation, Ki67 expression)” value is “more significant decrease in homeostatic proliferation of memory T cells than naive T cells”. For the same compound, the “reduction of the fraction of proliferating B cells (BrdU)” value in assay [4] was ~10 fold.

The record behind these values is patent publication US9616062B2, “Cyclin dependent kinase inhibitors and methods of use” (priority 2009, dated 2017).
